Measured values taken from patent US10258042B2, “Substituted pyrazolylpyrazole derivative and use of same as herbicide” (KYOYU AGRI CO., LTD., priority 2015, dated 2019).

Experiments:
Type in all cases: in vivo
Oryza sativa = assay: Paddy herbicidal activity test, phytotoxicity to transplanted rice; conditions: rice plants in the 2.0 leaf stage transplanted, 30 days, 30° C.
Description: (§1) Rice paddy soil was filled into a 1/10000 are pot followed by the addition of suitable amounts of water and chemical fertilizer, kneading, seeding with Echinochloa crus-galli, Monochoria vaginalis and Scirpus juncoides and maintaining in an irrigated state at a water depth of 3 cm.
(§2) Wettable powders of Target Compound (I) shown in Table 1 prepared in compliance with the preparation examples were diluted with a suitable amount of water, rice plants in the 2.0 leaf stage were transplanted during 3.5 leaf stage of Echinochloa crus-galli, and treated by dropping in chemical in the prescribed amount per 10 are using a pipette.
(§3) After treating for 30 days in a glass greenhouse at an average atmospheric temperature of 30° C., the herbicidal efficacy thereof was investigated.
(§4) Evaluation of herbicidal efficacy was carried out by comparing growth inhibition rate (%) with an untreated group, while evaluation of phytotoxicity was carried out by comparing growth inhibition rate (%) with the state of a complete eradication group, and were evaluated at 11 levels indicated below.

Digitaria ciliaris [1] = assay: Weed foliar treatment test (Test Example 3); conditions: foliar spray at 1.0 to 2.0 leaf stage of Digitaria ciliaris, 3 weeks, 25° C.
Description: (§5) Soil was filled into a 1/6000 are pot followed by seeding with Digitaria ciliaris, Chenopodium album and Amaranthus retroflexus, covering with soil, and cultivating in a glass greenhouse at an average atmospheric temperature of 25° C.
(§6) Wettable powders of Target Compound (I) shown in Table 1 prepared in compliance with the preparation examples were diluted with water to the prescribed amount of chemical and uniformly sprayed onto the weeds using 150 liters of sprayed water per 10 are when Digitaria ciliaris had grown to the 1.0 to 2.0 leaf stage.
(§7) After treating for 3 weeks in a glass greenhouse at an average atmospheric temperature of 25° C., the herbicidal efficacy thereof was investigated.
(§8) Evaluation of herbicidal efficacy was carried out in the same manner as the above-mentioned Test Example 1.

Amaranthus retroflexus [2] = assay: Weed foliar treatment test (Test Example 3); conditions: foliar spray at 1.0 to 2.0 leaf stage of Digitaria ciliaris, 3 weeks, 25° C.
Description: as §5, §6, §7, §8

Chenopodium album [3] = assay: Weed foliar treatment test (Test Example 3); conditions: foliar spray at 1.0 to 2.0 leaf stage of Digitaria ciliaris, 3 weeks, 25° C.; for herbicidal efficacy, Chenopodium alubum: 5 g a.i./10a; for herbicidal efficacy, Chenopodium album: 10 g a.i./10a
Description: as §5, §6, §7, §8

Digitaria ciliaris [4] = assay: Farming soil treatment test; conditions: soil surface spray prior to weed growth, 30 days, 30° C.
Description: (§9) Field soil was filled into a 1/6000 are pot followed by seeding with Digitaria ciliaris, Chenopodium album and Amaranthus retroflexus and covering with soil.
(§10) Wettable powders of compounds of formula (I) shown in Table 1 prepared in compliance with the preparation examples were diluted with water to the prescribed amount of chemical and uniformly sprayed onto each soil surface layer using 100 liters of sprayed water per 10 are prior to weed growth following seeding.
as §3
(§11) Evaluation of herbicidal efficacy was carried out in the same manner as the above-mentioned Test Example 1,

Amaranthus retroflexus [5] = assay: Farming soil treatment test; conditions: soil surface spray prior to weed growth, 30 days, 30° C.
Description: as §9, §10, §3, §11

Chenopodium album [6] = assay: Farming soil treatment test; conditions: soil surface spray prior to weed growth, 30 days, 30° C.
Description: as §9, §10, §3, §11

Monochoria vaginalis = assay: Paddy herbicidal activity test; conditions: irrigated paddy pot, 30 days, 30° C.
Description: as §1, §2, §3, §4

Scirpus juncoides = assay: Paddy herbicidal activity test; conditions: irrigated paddy pot, 30 days, 30° C.
Description: as §1, §2, §3, §4

Echinochloa crus-galli = assay: Paddy herbicidal activity test; conditions: irrigated paddy pot, treated at 3.5 leaf stage of Echinochloa crus-galli, 30 days, 30° C.
Description: as §1, §2, §3, §4

Digitaria ciliaris [7] = assay: Weed foliar treatment test (Test Example 4, higher leaf stage); conditions: 10 g a.i./10a; foliar spray at 4.0 to 5.0 leaf stage of Digitaria ciliaris (plant height 10 cm to 15 cm); 20 days, 25° C.
Description: (§12) Field soil was filled into a 1/4500 are pot followed by seeding with Digitaria ciliaris and Galinsoga parviflora, covering with soil and cultivating in a glass greenhouse at an average atmospheric temperature of 25° C.
(§13) Wettable powders of Target Compound (I) shown in Table 1 prepared in compliance with the preparation examples were diluted with water to the prescribed amount of chemical and uniformly sprayed onto the weeds using 100 liters of sprayed water per 10 are when Digitaria ciliaris had grown to the 4.0 to 5.0 leaf stage (plant height: 10 cm to 15 cm).
(§14) After treating for 20 days in a glass greenhouse at an average atmospheric temperature of 25° C., the herbicidal efficacy thereof was investigated.
as §8

Galinsoga parviflora = assay: as above; conditions: 10 g a.i./10a; foliar spray at 4.0 to 5.0 leaf stage of Digitaria ciliaris; 20 days, 25° C.
Description: as §12, §13, §14, §8

SMILES	phytotoxicity, Oryza sativa (Oryza sativa; 1 g a.i./10a)	phytotoxicity, Oryza sativa (Oryza sativa; 5 g a.i./10a)	herbicidal efficacy, Digitaria ciliaris (Digitaria ciliaris [1]; 5 g a.i./10a)	herbicidal efficacy, Digitaria ciliaris (Digitaria ciliaris [1]; 10 g a.i./10a)	herbicidal efficacy, Amaranthus retroflexus (Amaranthus retroflexus [2]; 5 g a.i./10a)	herbicidal efficacy, Amaranthus retroflexus (Amaranthus retroflexus [2]; 10 g a.i./10a)	herbicidal efficacy, Chenopodium alubum (Chenopodium album [3])	herbicidal efficacy, Chenopodium album (Chenopodium album [3])	herbicidal efficacy, Digitaria ciliaris (Digitaria ciliaris [4]; 5 g a.i./10a)	herbicidal efficacy, Digitaria ciliaris (Digitaria ciliaris [4]; 10 g a.i./10a)	herbicidal efficacy, Amaranthus retroflexus (Amaranthus retroflexus [5]; 5 g a.i./10a)	herbicidal efficacy, Amaranthus retroflexus (Amaranthus retroflexus [5]; 10 g a.i./10a)	herbicidal efficacy, Chenopodium album (Chenopodium album [6]; 5 g a.i./10a)	herbicidal efficacy, Chenopodium album (Chenopodium album [6]; 10 g a.i./10a)	herbicidal efficacy, Monochoria vaginalis (Monochoria vaginalis; 1 g a.i./10a)	herbicidal efficacy, Monochoria vaginalis (Monochoria vaginalis; 5 g a.i./10a)	herbicidal efficacy, Scirpus juncoides (Scirpus juncoides; 1 g a.i./10a)	herbicidal efficacy, Scirpus juncoides (Scirpus juncoides; 5 g a.i./10a)	herbicidal efficacy, Echinochloa crus-galli (Echinochloa crus-galli; 1 g a.i./10a)	herbicidal efficacy, Echinochloa crus-galli (Echinochloa crus-galli; 5 g a.i./10a)	also measured
N#Cc1cnn(-c2nn3c(c2Cl)CCCC3)c1NC(=O)CCCCl [Control agent 1.37, reference compound]	2 (2: 20% to less than 30%)	2 (2: 20% to less than 30%)	–	–	–	–	–	–	–	–	–	–	–	–	–	–	–	–	–	–	–
CCCC(=O)Nc1c(C#N)cnn1-c1nn2c(c1Cl)CCCC2 [Control agent 4.188, reference compound]	2 (2: 20% to less than 30%)	2 (2: 20% to less than 30%)	1 (1: 10% to less than 20%)	2 (2: 20% to less than 30%)	4 (4: 40% to less than 50%)	5 (5: 50% to less than 60%)	3 (3: 30% to less than 40%)	5 (5: 50% to less than 60%)	0 (0 (exponent): 0% to less than 10% (growth inhibition rate))	1 (1: 10% to less than 20%)	4 (4: 40% to less than 50%)	4 (4: 40% to less than 50%)	2 (2: 20% to less than 30%)	3 (3: 30% to less than 40%)	3 (3: 30% to less than 40%)	3 (3: 30% to less than 40%)	0 (0 (exponent): 0% to less than 10% (growth inhibition rate))	1 (1: 10% to less than 20%)	2 (2: 20% to less than 30%)	3 (3: 30% to less than 40%)	herbicidal efficacy, Digitaria ciliaris (Digitaria ciliaris [7]): 0 (0 (exponent): 0% to less than 10% (growth inhibition rate)); herbicidal efficacy, Galinsoga parviflora (Galinsoga parviflora): 4 (4: 40% to less than 50%)
CCCCC(=O)Nc1c(C#N)cnn1-c1nn2c(c1Cl)CCCC2 [Control agent 4.191, reference compound]	1 (1: 10% to less than 20%)	1 (1: 10% to less than 20%)	0 (0 (exponent): 0% to less than 10% (growth inhibition rate))	0 (0 (exponent): 0% to less than 10% (growth inhibition rate))	4 (4: 40% to less than 50%)	5 (5: 50% to less than 60%)	3 (3: 30% to less than 40%)	2 (2: 20% to less than 30%)	0 (0 (exponent): 0% to less than 10% (growth inhibition rate))	0 (0 (exponent): 0% to less than 10% (growth inhibition rate))	2 (2: 20% to less than 30%)	3 (3: 30% to less than 40%)	3 (3: 30% to less than 40%)	3 (3: 30% to less than 40%)	2 (2: 20% to less than 30%)	2 (2: 20% to less than 30%)	0 (0 (exponent): 0% to less than 10% (growth inhibition rate))	1 (1: 10% to less than 20%)	2 (2: 20% to less than 30%)	2 (2: 20% to less than 30%)	herbicidal efficacy, Digitaria ciliaris (Digitaria ciliaris [7]): 0 (0 (exponent): 0% to less than 10% (growth inhibition rate)); herbicidal efficacy, Galinsoga parviflora (Galinsoga parviflora): 3 (3: 30% to less than 40%)
